Results on 1 molecule are retold here after patent US20240197911A1, “Oral Pharmaceutical Composition, Method for Fabricating Thereof, and Kit for Treating Cancer” (National Tsing Hua University, priority 2022, published 2024).

The test system of series [1] is RAW264.7 cells. Nature of the series: Cellular uptake and trafficking by Mφ in vitro (CLSM). It is filed as cell-based, murine. The settings on record: 10 μg/mL DOX. The procedure:
To investigate whether the oral pharmaceutical composition of the present disclosure can be phagocytosed and carried by Mφ, the cellular uptake and trafficking of free DOX, Comparative Example or Example 1 by Mφ in vitro are observed first. RAW264.7 cells, a murine Mφ cell line, are seeded in an eight-well chamber slide (ibidi) at a density of 5×10^4 cells per well and incubated overnight. The cells are then treated with each of the test samples at an equivalent dose of DOX (10 μg/mL). Following incubation for pre-determined periods (0, 2, 4, and 6 hours), test cells are washed with Dulbecco's phosphate-buffered saline (DPBS) and stained with LysoTracker™ Deep Red (Invitrogen) and Hoechst 33342 (Abcam) for 30 minutes in the incubator. The stained cells are then examined using confocal laser scanning microscopy (CLSM) (LSM 780, Carl Zeiss) to track the localization and accumulation of free DOX, the DOX fluorescent signal of Comparative Example or Example 1, and to determine the cell regulation process of free DOX, Comparative example and Example 1 in the RAW264.7 cells.

The test system of series [2] is RAW264.7 cells. Kind of series: Cytotoxicity on Mφ. The class given is cell-based, murine. The settings on record: different DOX concentrations, 24 hours. The procedure:
The capacity of Mφ as a hitchhiking vehicle is strongly correlated with their viability following the uptake of drug-encapsulated particles. Therefore, the cytotoxicity of Example 1 on Mφ are further evaluated. The RAW264.7 cells are incubated with Comparative Example or Example 1 including different DOX concentrations for 24 hours, and the RAW264.7 cells treated with the same concentration of free DOX are used as Control (represents as “DOX”).

Another series deals with orthotopic PDAC mice. Nature of the series: Antitumor efficacy of different treatments. The class given is in vivo. The text has this:
To evaluate the antitumor efficacy of different treatments, the orthotopic PDAC mice are randomly assigned to the following groups: untreated control group (hereinafter referred to as “Control”), orally administered β-glucan group (hereinafter referred to as “βGlus”), intravenous injected DOX group (hereinafter referred to as “DOX”), orally administered Comparative Example group (hereinafter referred to as “Comparative Example”), and orally administered Example 1 group (hereinafter referred to as “Example 1”). In the groups of DOX, Comparative Example and Example 1, the DOX content of each dose is 10 mg/kg, while in the groups of βGlus and Example 1, the content of β-glucan of each dose is 40 mg/kg. The body weight changes of the orthotopic PDAC mice are recorded every other day. On day 21, the orthotopic PDAC mice are euthanized and their tumors are retrieved for analysis.

`COc1cccc2c1C(=O)c1c(O)c3c(c(O)c1C2=O)C[C@@](O)(C(=O)CO)C[C@@H]3O[C@H]1C[C@H](N)[C@H](O)[C@H](C)O1` [DOX, doxorubicin]: the “accumulation of DOX fluorescence in the cell nuclei” value with RAW264.7 cells [1] was “accumulated in their nuclei”. Further, the cell viability result in the series on RAW264.7 cells [2] is on record as “decreases substantially in a dose-dependent manner”. For the same molecule, the tumor volume result in the series with orthotopic PDAC mice (day 21, three doses, DOX 10 mg/kg, β-glucan 40 mg/kg per dose, compared with Control) is “substantially reduces tumor volumes”. In addition, the body weight entry with orthotopic PDAC mice (intravenous DOX 10 mg/kg per dose, P<0.05) is reported as “serious loss of body weight”.
